Experimental data published in patent US20070213291A1, “Therapeutically useful synthetic oligonucleotides” (priority 1999, published 2007).

Assays:
Format in all cases: cell-based
[1] = system: Jurkat human leukemia T cells; experiment: Inhibition of Jurkat human leukemia T cell proliferation (MTT reduction); settings: 100 μg/ml sequence, 48 h, 2.5×10^5 cells/ml
Procedure, shortened: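 Read-out is MTT absorbance at 570 nm after 48 h. Sequences of 2 to 45 bases (A, C, G, T) tested at 100 μg/ml against untreated control, with 2.5×10^5 Jurkat cells/ml held at 37° C under 5% CO2.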

[2] = system: Jurkat human leukemia T cells; experiment: Apoptosis by phosphatidylserine/annexin V-FITC flow cytometry; settings: 50 μM sequence
Description: (§1) The redistribution of phosphatidylserine in the plasma membrane during apoptosis was measured by flow cytometry using FITC-conjugated annexin V (BD Pharmingen, San Diego, Calif.). NuMA release into the supernatant was determined using a commercial ELISA kit (Oncogen/Calbiochem, Cambridge, Mass.).
Jurkat human leukemia T cells were incubated with 50 μM of 3, 4, 5, 6 and 7 GT base sequences, a 5 base ACGT sequence, 6 base AG, GG, AGT and CGT sequences and a 7 base GG sequence. […]
Jurkat human leukemia T cells were incubated with GT-rich or AC-rich sequences derived from the murA gene of Mycobacterium phlei (GenBank: Accession Number X99776). Inhibition of proliferation was measured by the reduction of MTT as in Example 3, cell cycle arrest was detected by flow cytometry using propidium iodide as in Example 21 and apoptosis was evaluated by flow cytometry using annexin-V-FITC as in Example 23.

[3] = system: Jurkat human leukemia T cells; experiment: NuMA release into supernatant (ELISA); settings: Jurkat, 50 μM sequence
Description: as §1
Jurkat human leukemia T cells were incubated with 50 μM of 3, 4, 5, 6 and 7 GT base sequences, a 5 base ACGT sequence, 6 base AG, GG, AGT and CGT sequences and a 7 base GG sequence.
Jurkat human leukemia T cells (1×10^6/ml) were incubated with 6 and 27 GT base sequences (Table 32). NuMA was determined as in Example 23.
Jurkat human cell leukemia T cells were incubated for 24 h with 6 base GT SEQ ID NO:25, complementary 6 base AC SEQ ID NO:79, and 6 base GT SEQ ID NO:25+6 base AC SEQ ID NO:79. GT SEQ ID NO:25 and AC SEQ ID NO:79 were hybridized by mixing the sequences (1:1) and heating for 10 minutes at 65° C. As controls, GT SEQ ID NO:25 and AC SEQ ID NO:79 were heated for 10 minutes at 65° C. (Table 33). Apoptosis was evaluated as in Example 23.

[4] = system: THP-1 human acute monocytic leukemia cells; experiment: Cytokine production by THP-1 cells (ELISA); settings: THP-1, 1×10^6 cells, 100 μg/ml, 48 h; for ↑ IL-12 (fold increase treated vs control cells): p70 complex and free p40
Procedure, shortened: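 Read-out is fold increase in supernatant cytokine versus control cells, measured by ELISA (IL-12 ELISA counts p70 complex plus free p40). Unless noted, sequences were tested at 100 μg/ml on 1×10^6 cells, incubated 48 h, 37° C, 5% CO2.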

[5] = system: human peripheral blood mononuclear cells; experiment: Cytokine production by human PBMC (ELISA); settings: PBMC of 7 healthy humans, 100 μg/ml, 48 h
Description: (§2) Unless stated otherwise, 1×10^6 cells were incubated with 100 μg/ml of each of the sequences tested for 48 h at 37° C. in 5% CO2. Production of cytokines IL-6, IL-10, IL-12, IL-1beta and TNF-alpha was determined in pg/ml in 100 μl of culture supernatant using the appropriate commercial ELISA (BioSource, Camarillo Calif.). The IL-12 ELISA measures both IL-12 p70 complex and free p40 subunit. Results are expressed as the “fold” (×) increase in cytokine production by treated cells compared to control cells.
Peripheral blood mononuclear cells (hereinafter, “PBMCs”) were isolated from 7 healthy humans by Ficoll-Hypaque (Amersham Pharmacia Biotech, Baie d'Urfée, Québec, Canada) by density gradient centrifugation of whole blood. PBMCs were incubated with 6 base GT, AGT, CGT, AG, CG and GG sequences and production of the cytokines IL-1beta, IL-6, IL-10 and IL-12 were determined.

chimpanzee PBMCs = experiment: Cytokine production by chimpanzee PBMC (ELISA); settings: PBMC of 4 healthy chimpanzees, 100 μg/ml, 48 h
Description: as §2
PBMCs were isolated from 4 healthy chimpanzees as in Example 35. Chimpanzee PBMCs were incubated with 6 base GT, AGT, CGT, AG, CG and GG sequences and production of the cytokines IL-10, IL-12 and TNF-alpha was determined (Table 41).

rhesus monkey PBMCs = experiment: Cytokine production by rhesus monkey PBMC (ELISA); settings: PBMC of 4 healthy rhesus monkeys, 100 μg/ml, 48 h
Description: as §2
PBMCs were isolated from 4 healthy rhesus monkeys as in Example 35. PBMCs were incubated with 6 base GT, AGT, CGT, AG, CG ands GG sequences and production of the cytokines IL-6, IL-12 and TNF-alpha was determined (Table 42).

AAGTAA [SEQ ID NO:27]
% INHIBITION of Jurkat human leukemia T cell proliferation [1]: 13%
% of cells in apoptosis (positive for PS/A-V staining) [2]: 20%
% NuMA released (treated vs untreated cells) [3]: 56%
↑ IL-6 (fold increase treated vs control cells) [4]: 12.8x
↑ IL-12 (fold increase treated vs control cells) [4]: 6.0x
IL-1 beta fold increase: mean +/− SD [5]: 1.3 +/− 0.5 fold increase
IL-6 fold increase: mean +/− SD [5]: 9.6 +/− 7.3 fold increase
IL-10 fold increase: mean +/− SD [5]: 1.0 +/− 0.1 fold increase
IL-12 fold increase: mean +/− SD [5]: 2.4 +/− 2.2 fold increase
IL-10 fold increase: mean +/− SD (chimpanzee PBMCs): 2.1 +/− 1.1 fold increase
IL-12 fold increase: mean +/− SD (chimpanzee PBMCs): 13.2 +/− 8.2 fold increase
TNF-alpha fold increase: mean +/− SD (chimpanzee PBMCs): 7.9 +/− 3.9 fold increase
IL-10 fold increase: mean +/− SD (rhesus monkey PBMCs): 0.9 +/− 0.1 fold increase
IL-12 fold increase: mean +/− SD (rhesus monkey PBMCs): 7.6 +/− 2.6 fold increase
TNF-alpha fold increase: mean +/− SD (rhesus monkey PBMCs): 6.0 +/− 5.0 fold increase

CCGTCC [SEQ ID NO:28]
% INHIBITION of Jurkat human leukemia T cell proliferation [1]: 11%
% of cells in apoptosis (positive for PS/A-V staining) [2]: 6%
% NuMA released (treated vs untreated cells) [3]: 0%
↑ IL-6 (fold increase treated vs control cells) [4]: 12.6x
↑ IL-12 (fold increase treated vs control cells) [4]: 3.8x
IL-1 beta fold increase: mean +/− SD [5]: 2.1 +/− 1.8 fold increase
IL-6 fold increase: mean +/− SD [5]: 10.4 +/− 13.0 fold increase
IL-10 fold increase: mean +/− SD [5]: 1.0 +/− 0.1 fold increase
IL-12 fold increase: mean +/− SD [5]: 5.9 +/− 10.7 fold increase
IL-10 fold increase: mean +/− SD (chimpanzee PBMCs): 3.8 +/− 2.8 fold increase
IL-12 fold increase: mean +/− SD (chimpanzee PBMCs): 13.3 +/− 8.4 fold increase
TNF-alpha fold increase: mean +/− SD (chimpanzee PBMCs): 10.3 +/− 5.7 fold increase
IL-10 fold increase: mean +/− SD (rhesus monkey PBMCs): 1.1 +/− 0.2 fold increase
IL-12 fold increase: mean +/− SD (rhesus monkey PBMCs): 10.1 +/− 3.7 fold increase
TNF-alpha fold increase: mean +/− SD (rhesus monkey PBMCs): 14.2 +/− 3.7 fold increase

CG(GT)1A (DNA CGGTA; unmodified DNA) [SEQ ID NO:80]
% of cells in apoptosis (positive for PS/A-V staining) [2]: 6%
% NuMA released (treated vs untreated cells) [3]: 9%

GG(GG)1GGG (DNA GGGTGGG; unmodified DNA)
% of cells in apoptosis (positive for PS/A-V staining) [2]: 12%
% NuMA released (treated vs untreated cells) [3]: 26%

GG(GT)1
% of cells in apoptosis (positive for PS/A-V staining) [2]: 21%
% NuMA released (treated vs untreated cells) [3]: 64%

GGGCGG (unmodified DNA) [SEQ ID NO:46]
% INHIBITION of Jurkat human leukemia T cell proliferation [1]: 23%
% of cells in apoptosis (positive for PS/A-V staining) [2]: 16%
% NuMA released (treated vs untreated cells) [3]: 11%
↑ IL-6 (fold increase treated vs control cells) [4]: 9.8x
↑ IL-12 (fold increase treated vs control cells) [4]: 2.3x
IL-1 beta fold increase: mean +/− SD [5]: 1.2 +/− 0.3 fold increase
IL-6 fold increase: mean +/− SD [5]: 15.8 +/− 16.2 fold increase
IL-10 fold increase: mean +/− SD [5]: 1.0 +/− 0.1 fold increase
IL-12 fold increase: mean +/− SD [5]: 3.0 +/− 3.8 fold increase
IL-10 fold increase: mean +/− SD (chimpanzee PBMCs): 4.7 +/− 3.4 fold increase
IL-12 fold increase: mean +/− SD (chimpanzee PBMCs): 15.8 +/− 10.4 fold increase
TNF-alpha fold increase: mean +/− SD (chimpanzee PBMCs): 14.1 +/− 6.6 fold increase
IL-10 fold increase: mean +/− SD (rhesus monkey PBMCs): 1.2 +/− 0.2 fold increase
IL-12 fold increase: mean +/− SD (rhesus monkey PBMCs): 11.0 +/− 4.4 fold increase
TNF-alpha fold increase: mean +/− SD (rhesus monkey PBMCs): 16.8 +/− 4.1 fold increase

GGGGGG [SEQ ID NO:44]
% INHIBITION of Jurkat human leukemia T cell proliferation [1]: 26%
% of cells in apoptosis (positive for PS/A-V staining) [2]: 5%
% NuMA released (treated vs untreated cells) [3]: 0%
↑ IL-6 (fold increase treated vs control cells) [4]: 15.1x
↑ IL-12 (fold increase treated vs control cells) [4]: 0.0x
IL-1 beta fold increase: mean +/− SD [5]: 7.1 +/− 9.4 fold increase
IL-6 fold increase: mean +/− SD [5]: 21.0 +/− 14.7 fold increase
IL-10 fold increase: mean +/− SD [5]: 1.7 +/− 1.6 fold increase
IL-12 fold increase: mean +/− SD [5]: 7.0 +/− 12.5 fold increase
IL-10 fold increase: mean +/− SD (chimpanzee PBMCs): 11.2 +/− 9.1 fold increase
IL-12 fold increase: mean +/− SD (chimpanzee PBMCs): 15.1 +/− 10.0 fold increase
TNF-alpha fold increase: mean +/− SD (chimpanzee PBMCs): 13.8 +/− 6.5 fold increase
IL-10 fold increase: mean +/− SD (rhesus monkey PBMCs): 2.1 +/− 1.0 fold increase
IL-12 fold increase: mean +/− SD (rhesus monkey PBMCs): 10.7 +/− 5.6 fold increase
TNF-alpha fold increase: mean +/− SD (rhesus monkey PBMCs): 13.9 +/− 8.5 fold increase
